According to ChEMBL document CHEMBL1201862, “PubChem BioAssay data set” (2004):
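Compound exposure: 48 hours, 5 concentrations, 96-well plates. GI50 is the concentration that inhibits growth by half.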 Activity calls are given as the source filed them. Cut-off read from the data, not from the text of the source: active = GI50 up to about 1.1 µM and inactive = higher.

How the values were obtained:
Experiment in all cases: NCI-60 cell line screen, 48 h
DLD-1 = system: DLD-1
DMS-114 = system: DMS-114
DMS-273 = system: DMS-273
HOP-18 = system: HOP-18
KM-20L2 = system: KM-20L2
LXFL 529 = system: LXFL 529
SNB-78 = system: SNB-78
XF498 = system: XF498
RXF 631 = system: RXF 631

| SMILES | GI50 (DLD-1) | GI50 (DMS-114) | GI50 (DMS-273) | GI50 (HOP-18) | GI50 (KM-20L2) | GI50 (LXFL 529) | GI50 (SNB-78) | GI50 (XF498) | GI50 (RXF 631) |
| --- | --- | --- | --- | --- | --- | --- | --- | --- | --- |
| O=C(/C=C/c1ccccc1F)c1ccc([N+](=O)[O-])cc1 | 16.6 µM (inactive) | 17.1 µM (inactive) | 36.3 µM (inactive) | 57.5 µM (inactive) | 30.8 µM (inactive) | 16.6 µM (inactive) | 37.2 µM (inactive) | 19.6 µM (inactive) | – |
| Cc1cc(C)nc(NS(=O)(=O)c2ccc(Nc3c4ccccc4nc4c(C(=O)N5CCN(CCO)CC5)ccc(Cl)c34)cc2)n1 | – | 72.3 µM (inactive) | > 100 µM (inactive) | – | 60.8 µM (inactive) | – | > 100 µM (inactive) | – | 85.5 µM (inactive) |
| O=C1C(=O)N(c2ccc(Cl)cc2)C(=O)C(=O)C1c1nc2ccccc2o1 | > 100 µM (inactive) | > 100 µM (inactive) | > 100 µM (inactive) | – | > 100 µM (inactive) | > 100 µM (inactive) | > 100 µM (inactive) | > 100 µM (inactive) | > 100 µM (inactive) |
| COc1ccc(S(=O)(=O)N[C@H](C(=O)O)c2ccccc2)cc1 | > 100 µM (inactive) | > 100 µM (inactive) | > 100 µM (inactive) | > 100 µM (inactive) | > 100 µM (inactive) | > 100 µM (inactive) | > 100 µM (inactive) | > 100 µM (inactive) | – |
| N#Cc1cc([N+](=O)[O-])ccc1NC(=O)C(=O)C(C(=O)c1ccc2ccccc2c1)C1OCc2ccccc21 (stereo unspecified) | 11.1 µM (inactive) | 8.07 µM (inactive) | – | – | 20.7 µM (inactive) | 4.41 µM (inactive) | 3.93 µM (inactive) | – | 11.3 µM (inactive) |
| CC[C@H]1CN2CCc3cc(OC)c(OC)cc3[C@@H]2C[C@@H]1C[C@H]1NCCc2c1[nH]c1ccc(O)cc21 [TUBULOSINE] | 0.0279 µM (active) | < 0.01 µM (active) | < 0.01 µM (active) | 0.0454 µM (active) | 0.0153 µM (active) | 0.0202 µM (active) | 0.0136 µM (active) | 0.0188 µM (active) | – |
| N#CCN1C(=O)c2cccc3cc([N+](=O)[O-])cc(c23)C1=O | 32 µM (inactive) | 38.7 µM (inactive) | 30.7 µM (inactive) | > 100 µM (inactive) | 45.2 µM (inactive) | 40.1 µM (inactive) | 71.6 µM (inactive) | 25.8 µM (inactive) | – |
| N=S(c1ccccc1)c1ccccc1[N+](=O)[O-] (stereo unspecified) | 18.6 µM (inactive) | 18.2 µM (inactive) | 18.4 µM (inactive) | 32.6 µM (inactive) | 21 µM (inactive) | 16.6 µM (inactive) | 36.1 µM (inactive) | 3.16 µM (inactive) | – |
| ClCCN(CC#CCCCC#CCN(CCCl)CCCl)CCCl | 15.6 µM (inactive) | 3.01 µM (inactive) | 4 µM (inactive) | 17.8 µM (inactive) | 13.8 µM (inactive) | 12.4 µM (inactive) | 17.2 µM (inactive) | – | 10.8 µM (inactive) |
| CCOC(=O)C(=O)Nc1ccc(C)cc1C | > 100 µM (inactive) | > 100 µM (inactive) | – | > 100 µM (inactive) | – | > 100 µM (inactive) | > 100 µM (inactive) | – | – |
| CCCCCCN(CCCCCC)C(=O)Cc1c2n(c3ccccc13)Cc1ccccc1-2 | 33.7 µM (inactive) | 28.6 µM (inactive) | 36.9 µM (inactive) | > 100 µM (inactive) | > 100 µM (inactive) | 37.4 µM (inactive) | 71.8 µM (inactive) | – | – |
| Cc1cc(C)c(-c2noc(-c3ccc(Cl)cc3)c2C2=NCCN2)c(C)c1 | 22.4 µM (inactive) | – | – | 1.17 µM (inactive) | 22.2 µM (inactive) | 19.9 µM (inactive) | 20.1 µM (inactive) | 21.4 µM (inactive) | 43.3 µM (inactive) |
| CC(C)(C)C1CCC(O)(c2ccccc2)CC1 (stereo unspecified) | > 100 µM (inactive) | 45.6 µM (inactive) | > 100 µM (inactive) | > 100 µM (inactive) | > 100 µM (inactive) | 78.2 µM (inactive) | > 100 µM (inactive) | 1.97 µM (inactive) | – |
| COC1(OC)C2(Cl)C(Cl)=C(Cl)C1(Cl)C1c3ccc(C(C)=O)c4cccc(c34)C12 (stereo unspecified) | – | 15.9 µM (inactive) | 3.89 µM (inactive) | > 100 µM (inactive) | 4.53 µM (inactive) | 25.6 µM (inactive) | 28.3 µM (inactive) | – | – |
| N#CC1(Cc2ccc(N)cc2)c2ccccc2C=CN1C(=O)c1ccccc1 (stereo unspecified) | 40 µM (inactive) | 38.8 µM (inactive) | 47.1 µM (inactive) | 25.2 µM (inactive) | 34.1 µM (inactive) | 35.8 µM (inactive) | 47.9 µM (inactive) | 28.9 µM (inactive) | – |
| CCCN(CCC)C(=O)C(=O)c1c(N)[nH]n(-c2ccccc2)c1=O | 78.3 µM (inactive) | > 100 µM (inactive) | > 100 µM (inactive) | > 100 µM (inactive) | > 100 µM (inactive) | 66.2 µM (inactive) | > 100 µM (inactive) | > 100 µM (inactive) | > 100 µM (inactive) |
| S=c1[nH]nc(Cc2ccccc2)c(=S)[nH]1 | 94.8 µM (inactive) | – | > 100 µM (inactive) | 25.4 µM (inactive) | – | > 100 µM (inactive) | > 100 µM (inactive) | > 100 µM (inactive) | > 100 µM (inactive) |
| c1ccc2c(c1)SC(=C1Sc3ccccc3S1)S2 | > 100 µM (inactive) | 69.8 µM (inactive) | > 100 µM (inactive) | > 100 µM (inactive) | > 100 µM (inactive) | > 100 µM (inactive) | > 100 µM (inactive) | > 100 µM (inactive) | > 100 µM (inactive) |
| C/C(=N\NS(=O)(=O)c1ccc(C)cc1)c1c(O)cc(C)oc1=O | > 100 µM (inactive) | – | – | > 100 µM (inactive) | > 100 µM (inactive) | > 100 µM (inactive) | > 100 µM (inactive) | – | – |
| CCNCCCCNCCCCNCCCCNCCCCNCC | > 100 µM (inactive) | > 100 µM (inactive) | > 49.7 µM (inactive) | > 100 µM (inactive) | > 100 µM (inactive) | > 94.8 µM (inactive) | > 100 µM (inactive) | > 32.8 µM (inactive) | – |
| CC(C)c1cc2c(O)c(c1)Cc1cc(C(C)C)cc(c1O)Cc1cc(C(C)C)cc(c1O)Cc1cc(C(C)C)cc(c1O)Cc1cc(C(C)C)cc(c1O)Cc1cc(C(C)C)cc(c1O)C2 | > 100 µM (inactive) | > 100 µM (inactive) | > 100 µM (inactive) | – | > 100 µM (inactive) | > 100 µM (inactive) | > 100 µM (inactive) | > 100 µM (inactive) | – |
| COC(=O)C(=O)CC(=O)CCn1[nH]c(=O)c(Cl)c(Cl)c1=O | > 100 µM (inactive) | > 100 µM (inactive) | > 100 µM (inactive) | – | > 100 µM (inactive) | > 100 µM (inactive) | > 100 µM (inactive) | > 100 µM (inactive) | – |
| Cc1ccc(S(=O)(=O)NCCCN(CCCNS(=O)(=O)c2ccc(C)cc2)S(=O)(=O)c2ccc(C)cc2)cc1 | > 100 µM (inactive) | > 100 µM (inactive) | > 100 µM (inactive) | – | > 100 µM (inactive) | > 100 µM (inactive) | > 100 µM (inactive) | – | – |
